Source: PMC5591244, “Novel selective, potent naphthyl TRPM8 antagonists identified through a combined ligand- and structure-based virtual screening approach” (Scientific Reports, 2017)
Read-outs that look alike come from different tables or passages of the source.

Experiments:
TRPM8 [1] = molecular target: T1, TRPM8 (Homo sapiens, UniProt Q7Z2W7); assay: Calcium mobilization assay (HTS and dose-response) on HEK-293/hTRPM8 cells; type: cell-based; settings: for IC50: calcium mobilization
T1 construct: expressed in transfected cells
T1 sequence (Q7Z2W7 whole entry): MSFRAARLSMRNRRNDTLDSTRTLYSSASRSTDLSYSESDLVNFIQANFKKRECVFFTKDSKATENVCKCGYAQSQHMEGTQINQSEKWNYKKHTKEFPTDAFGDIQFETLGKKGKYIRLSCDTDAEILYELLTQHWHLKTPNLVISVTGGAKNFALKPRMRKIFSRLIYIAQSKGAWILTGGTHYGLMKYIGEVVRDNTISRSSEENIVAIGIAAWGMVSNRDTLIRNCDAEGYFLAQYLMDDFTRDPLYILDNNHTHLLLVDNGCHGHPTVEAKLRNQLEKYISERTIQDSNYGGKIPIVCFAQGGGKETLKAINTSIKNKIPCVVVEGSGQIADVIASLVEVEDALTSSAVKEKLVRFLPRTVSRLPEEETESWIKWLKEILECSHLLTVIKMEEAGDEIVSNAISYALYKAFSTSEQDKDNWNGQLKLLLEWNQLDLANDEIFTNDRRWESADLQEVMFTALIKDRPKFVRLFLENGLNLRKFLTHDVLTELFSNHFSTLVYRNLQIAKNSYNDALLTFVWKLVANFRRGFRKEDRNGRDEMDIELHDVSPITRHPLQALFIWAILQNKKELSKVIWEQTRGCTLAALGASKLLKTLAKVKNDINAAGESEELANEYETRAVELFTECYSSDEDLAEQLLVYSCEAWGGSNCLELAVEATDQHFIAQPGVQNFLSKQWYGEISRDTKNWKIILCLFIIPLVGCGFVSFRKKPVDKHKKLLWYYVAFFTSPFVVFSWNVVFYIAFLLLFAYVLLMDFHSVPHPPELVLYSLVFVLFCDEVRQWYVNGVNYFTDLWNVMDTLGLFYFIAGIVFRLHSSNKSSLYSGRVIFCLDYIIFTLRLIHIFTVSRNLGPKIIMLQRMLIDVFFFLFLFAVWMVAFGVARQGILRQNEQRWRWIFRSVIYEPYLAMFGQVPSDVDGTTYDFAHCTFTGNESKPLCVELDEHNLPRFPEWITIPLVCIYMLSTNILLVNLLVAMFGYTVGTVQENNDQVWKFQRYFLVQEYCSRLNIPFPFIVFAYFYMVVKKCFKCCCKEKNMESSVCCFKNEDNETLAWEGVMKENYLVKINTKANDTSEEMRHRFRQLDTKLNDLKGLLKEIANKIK
Description: All experiments were performed on HEK-293/hTRPM8 cells stably transfected with the human TRPM8 gene, except for site-directed mutagenesis analysis, which was performed on transient transfectants. In details, HEK-293 cells (ATCC, Manassas, Virginia) were transfected with the pcDNA3/hTRPM8 vector by electroporation (300 Volts, 950 µF) then selected with medium containing 0,8 mg/ml G418 for 10–15 days. Then the stable transfected pool underwent two rounds of limiting dilutions, in eight 96 well plates at a cell density of 1 cell/well, in order to obtain pure clones. The best responder clone was selected based on its response to 1 mM menthol in calcium mobilization experiments. HEK-293/hTRPM8 cells were maintained in EMEM (Minimum Essential Medium Eagle with Earl’s salts Balanced Salt Solution, LONZA) supplemented with 2 mM Ultraglutamine1 (Lonza), 1% Penicillin/Streptomycin (LONZA), 10% of Fetal Bovine Serum (Euroclone) and 0,4 mg/mL G418 (InvivoGen).
For calcium mobilization assays, cells were seeded at 10,000 cells/well in 384-well plates coated with poly-D-lysine (MATRIX black/clear bottom #4332-CPL, Thermo Scientific, Waltham, MA, USA) in complete medium.Twenty-four hours after seeding, the plates were washed with Tyrode’s buffer with a Bio-Tek-ELx405 Microplate Washer (Merck Millipore; Billerica, MA, USA), and then 10 µl/well of a solution containing the fluorescent Ca^2+ indicator Fluo-4 NW dye was added. Cells were incubated for 1 h at room temperature before test compounds were added at 3X the concentration with respect to the final wanted concentration to be tested with a FLIPR TETRA system (Molecular Devices, Sunnyvale, CA, USA). Calcium mobilization was monitored over a period of 5 min. A second injection of 10 µl/well of a reference agonist (icilin or Cooling agent 10) at 4X concentration in assay buffer was performed using the FLIPR TETRA system. Of note, for selectivity assays, the following agonists were used: 10 μM AITC (allyl isothiocyanate) for TRPA1; 100 nM Capsaicin for TRPV1; and 20 nM GSK1016790A for TRPV4.
After addition of the agonist, the fluorescence signal was recorded over the next 3 min. The bioactivity exerted by the compounds was expressed as a percentage of inhibition. The percentage scale is defined as follows: 100% inhibition was considered as the relative fluorescence units (RFUs) of the value of the MIN controls in the second injection (antagonist Capsazepine at IC100 = 50 µM) and 0% inhibition was considered as the RFU values of the value of the MAX controls in the second injection (Cooling agent 10 at EC80 = 30 µM). Data from four replicates were analyzed using GraphPad PRISM® software (version 5, GraphPad Software Inc.) to calculate the mean and standard error of the mean, to create sigmoidal concentration-response curves and to calculate IC50 values.

TRPM8 [2] = molecular target: T1, TRPM8; assay: Schild regression versus icilin; type: cell-based; settings: data not shown
Description: Compound 1 was also tested in schild regression experiments[65] and compared with icilin and cooling agent (data not shown) to better characterize its mechanism of action. In these experiments, seven points for dose-response curves with icilin at seven different concentrations were analyzed.

Question: `Clc1c(OCCNCc2ccco2)ccc2ccccc12` [Compound 1] was tested. Which pIC50 (TRPM8 [1]; HTS campaign activity determination, Fig. 4) did it give?
Answer: 7.15

Question: What about the IC50 (TRPM8 [1]; agonist Cooling agent 10, read-out: pIC50 with Cooling agent 10 (converted)) of the same molecule?
Answer: 41.7 nM

Question: What about the IC50 (TRPM8 [1]; agonist icilin, read-out: pIC50 with icilin (converted)) of the same molecule?
Answer: 58.9 nM

Question: What about the “Binding mechanism by Schild regression” value (TRPM8 [2]) of the same molecule?
Answer: orthosteric binding mechanism
